Values of other authors in article PMC9851200, “Multiparameter phenotypic screening for endogenous TFEB and TFE3 translocation identifies novel chemical series modulating lysosome function” (Autophagy, 2022).

Columns and labels:
Set-up in all cases: method as in original PKIS2 published data
[1] = target: kinases (KINOMEscan panel) (Homo sapiens, UniProt Q00536); details: kinase CDK16; Published KINOMEscan; ref original PKIS2 published data; cited from earlier work
[2] = target: T1, kinases (KINOMEscan panel) (Homo sapiens, UniProt Q96BR1); details: kinase SGK3; Published KINOMEscan; ref original PKIS2 published data; cited from earlier work
T1 sequence (Q96BR1 1-496): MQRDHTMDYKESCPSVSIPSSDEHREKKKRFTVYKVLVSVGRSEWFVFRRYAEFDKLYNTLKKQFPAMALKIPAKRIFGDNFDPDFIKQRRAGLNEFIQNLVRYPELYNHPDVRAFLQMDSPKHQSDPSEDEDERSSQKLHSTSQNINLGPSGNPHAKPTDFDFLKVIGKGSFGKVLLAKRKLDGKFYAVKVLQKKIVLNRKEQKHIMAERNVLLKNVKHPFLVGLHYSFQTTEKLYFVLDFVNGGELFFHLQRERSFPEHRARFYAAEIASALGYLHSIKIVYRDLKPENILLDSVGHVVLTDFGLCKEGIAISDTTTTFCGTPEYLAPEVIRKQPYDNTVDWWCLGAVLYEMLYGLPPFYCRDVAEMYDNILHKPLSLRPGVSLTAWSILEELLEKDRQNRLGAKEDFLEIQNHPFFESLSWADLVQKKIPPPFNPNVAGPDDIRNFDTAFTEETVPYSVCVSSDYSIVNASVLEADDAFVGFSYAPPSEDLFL

[3] = target: T2, kinases (KINOMEscan panel) (Homo sapiens, UniProt O95835); details: LATS1; Published KINOMEscan; ref original PKIS2 published data; cited from earlier work
T2 sequence (O95835 1-1130): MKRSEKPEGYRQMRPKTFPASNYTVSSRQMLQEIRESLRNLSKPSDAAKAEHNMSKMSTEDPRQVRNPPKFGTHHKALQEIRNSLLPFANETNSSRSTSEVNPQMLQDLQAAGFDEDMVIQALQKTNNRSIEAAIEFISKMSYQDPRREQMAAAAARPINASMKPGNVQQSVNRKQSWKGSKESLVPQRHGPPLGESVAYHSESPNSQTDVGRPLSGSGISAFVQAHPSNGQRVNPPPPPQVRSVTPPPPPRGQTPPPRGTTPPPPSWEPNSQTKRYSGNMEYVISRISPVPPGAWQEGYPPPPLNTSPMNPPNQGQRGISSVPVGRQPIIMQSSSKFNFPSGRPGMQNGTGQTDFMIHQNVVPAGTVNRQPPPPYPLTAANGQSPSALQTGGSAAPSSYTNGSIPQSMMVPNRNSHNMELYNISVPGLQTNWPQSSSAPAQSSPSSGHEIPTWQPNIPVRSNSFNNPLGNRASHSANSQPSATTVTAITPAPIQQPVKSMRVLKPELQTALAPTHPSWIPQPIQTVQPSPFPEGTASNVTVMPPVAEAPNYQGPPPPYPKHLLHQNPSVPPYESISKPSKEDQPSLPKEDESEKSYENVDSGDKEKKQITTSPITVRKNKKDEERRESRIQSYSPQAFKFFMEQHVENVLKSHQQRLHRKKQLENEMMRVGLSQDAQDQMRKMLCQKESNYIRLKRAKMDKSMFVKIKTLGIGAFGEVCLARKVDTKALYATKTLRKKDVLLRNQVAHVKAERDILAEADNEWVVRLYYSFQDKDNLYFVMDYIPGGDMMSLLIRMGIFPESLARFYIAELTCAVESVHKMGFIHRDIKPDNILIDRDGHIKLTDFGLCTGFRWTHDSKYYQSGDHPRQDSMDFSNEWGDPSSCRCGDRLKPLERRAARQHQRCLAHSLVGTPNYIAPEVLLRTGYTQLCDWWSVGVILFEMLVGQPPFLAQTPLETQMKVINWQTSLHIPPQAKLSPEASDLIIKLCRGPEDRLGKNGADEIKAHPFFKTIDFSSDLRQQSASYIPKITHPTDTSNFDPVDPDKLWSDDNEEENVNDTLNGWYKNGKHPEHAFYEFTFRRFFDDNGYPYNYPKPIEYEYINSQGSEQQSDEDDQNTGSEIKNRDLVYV

[4] = target: kinases (KINOMEscan panel) (Homo sapiens, UniProt Q96RR4); details: CAMKK2; Published KINOMEscan; ref original PKIS2 published data; cited from earlier work
Sequence of kinases (KINOMEscan panel) (Homo sapiens, UniProt Q96RR4) (Q96RR4 whole entry): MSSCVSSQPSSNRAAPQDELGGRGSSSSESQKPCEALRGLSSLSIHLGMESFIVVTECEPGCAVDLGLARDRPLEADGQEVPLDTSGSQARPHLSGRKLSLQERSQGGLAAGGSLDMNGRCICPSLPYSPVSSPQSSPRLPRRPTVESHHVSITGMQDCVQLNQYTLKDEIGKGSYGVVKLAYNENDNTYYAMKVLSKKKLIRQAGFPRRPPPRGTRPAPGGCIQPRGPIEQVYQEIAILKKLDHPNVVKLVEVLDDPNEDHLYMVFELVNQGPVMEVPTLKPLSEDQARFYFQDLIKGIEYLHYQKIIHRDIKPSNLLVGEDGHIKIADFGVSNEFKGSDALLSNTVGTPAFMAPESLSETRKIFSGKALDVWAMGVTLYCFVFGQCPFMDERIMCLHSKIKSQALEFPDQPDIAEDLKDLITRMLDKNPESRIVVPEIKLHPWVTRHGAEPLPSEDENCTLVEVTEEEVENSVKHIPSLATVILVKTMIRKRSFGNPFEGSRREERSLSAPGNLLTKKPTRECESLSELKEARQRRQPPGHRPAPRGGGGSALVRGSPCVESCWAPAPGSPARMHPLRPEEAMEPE

[5] = target: T3, kinases (KINOMEscan panel) (Homo sapiens, UniProt Q13470); details: TNK1; Published KINOMEscan; ref original PKIS2 published data; cited from earlier work
T3 sequence (Q13470 1-666): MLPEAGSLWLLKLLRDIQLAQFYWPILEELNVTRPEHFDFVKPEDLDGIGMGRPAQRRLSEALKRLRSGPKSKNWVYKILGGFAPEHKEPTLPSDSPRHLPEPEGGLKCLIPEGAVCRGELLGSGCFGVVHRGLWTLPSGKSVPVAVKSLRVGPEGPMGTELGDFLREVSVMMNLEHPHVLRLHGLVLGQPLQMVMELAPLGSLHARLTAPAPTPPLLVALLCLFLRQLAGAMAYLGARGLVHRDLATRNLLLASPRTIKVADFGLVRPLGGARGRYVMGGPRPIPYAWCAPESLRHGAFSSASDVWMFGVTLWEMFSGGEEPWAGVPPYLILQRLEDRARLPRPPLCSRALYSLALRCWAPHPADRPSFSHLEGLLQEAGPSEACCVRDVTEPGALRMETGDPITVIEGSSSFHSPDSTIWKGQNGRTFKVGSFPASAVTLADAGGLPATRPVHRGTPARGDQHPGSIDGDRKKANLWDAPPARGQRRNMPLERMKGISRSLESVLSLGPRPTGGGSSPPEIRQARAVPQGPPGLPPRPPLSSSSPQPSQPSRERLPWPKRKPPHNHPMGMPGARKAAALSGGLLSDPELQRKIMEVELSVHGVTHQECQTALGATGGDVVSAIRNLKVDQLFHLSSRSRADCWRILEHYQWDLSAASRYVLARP

[6] = target: kinases (KINOMEscan panel) (Homo sapiens, UniProt Q9H0K1); details: kinase SIK2; Published KINOMEscan; ref original PKIS2 published data; cited from earlier work
Sequence of kinases (KINOMEscan panel) (Homo sapiens, UniProt Q9H0K1) (Q9H0K1 whole entry): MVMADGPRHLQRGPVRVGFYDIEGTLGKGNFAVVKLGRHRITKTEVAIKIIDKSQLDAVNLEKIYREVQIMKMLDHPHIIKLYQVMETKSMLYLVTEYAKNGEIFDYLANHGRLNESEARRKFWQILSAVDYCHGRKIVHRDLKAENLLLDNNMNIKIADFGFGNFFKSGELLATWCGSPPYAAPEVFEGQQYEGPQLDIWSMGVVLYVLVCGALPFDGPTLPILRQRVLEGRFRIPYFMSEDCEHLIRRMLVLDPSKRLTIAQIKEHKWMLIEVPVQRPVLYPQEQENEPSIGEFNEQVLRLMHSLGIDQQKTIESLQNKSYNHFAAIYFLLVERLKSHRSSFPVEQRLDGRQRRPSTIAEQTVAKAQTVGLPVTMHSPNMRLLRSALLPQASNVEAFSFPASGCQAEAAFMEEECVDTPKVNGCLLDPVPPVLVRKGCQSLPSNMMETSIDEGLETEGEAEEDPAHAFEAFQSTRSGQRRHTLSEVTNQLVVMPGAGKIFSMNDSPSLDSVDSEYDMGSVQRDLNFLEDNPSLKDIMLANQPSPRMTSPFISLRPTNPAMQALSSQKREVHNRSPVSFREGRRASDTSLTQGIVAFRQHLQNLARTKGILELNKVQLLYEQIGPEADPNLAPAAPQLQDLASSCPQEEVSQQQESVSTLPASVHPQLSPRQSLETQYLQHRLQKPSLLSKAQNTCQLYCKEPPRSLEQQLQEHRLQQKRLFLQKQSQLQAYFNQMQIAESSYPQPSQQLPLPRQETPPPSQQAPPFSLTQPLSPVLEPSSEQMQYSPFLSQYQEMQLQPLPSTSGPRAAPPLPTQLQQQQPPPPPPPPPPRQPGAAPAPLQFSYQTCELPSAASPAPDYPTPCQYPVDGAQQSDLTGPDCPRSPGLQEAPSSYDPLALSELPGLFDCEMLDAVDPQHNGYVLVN

[7] = target: kinases (KINOMEscan panel) (Homo sapiens, UniProt Q5VT25); details: cited from earlier work
Sequence of kinases (KINOMEscan panel) (Homo sapiens, UniProt Q5VT25) (Q5VT25 whole entry): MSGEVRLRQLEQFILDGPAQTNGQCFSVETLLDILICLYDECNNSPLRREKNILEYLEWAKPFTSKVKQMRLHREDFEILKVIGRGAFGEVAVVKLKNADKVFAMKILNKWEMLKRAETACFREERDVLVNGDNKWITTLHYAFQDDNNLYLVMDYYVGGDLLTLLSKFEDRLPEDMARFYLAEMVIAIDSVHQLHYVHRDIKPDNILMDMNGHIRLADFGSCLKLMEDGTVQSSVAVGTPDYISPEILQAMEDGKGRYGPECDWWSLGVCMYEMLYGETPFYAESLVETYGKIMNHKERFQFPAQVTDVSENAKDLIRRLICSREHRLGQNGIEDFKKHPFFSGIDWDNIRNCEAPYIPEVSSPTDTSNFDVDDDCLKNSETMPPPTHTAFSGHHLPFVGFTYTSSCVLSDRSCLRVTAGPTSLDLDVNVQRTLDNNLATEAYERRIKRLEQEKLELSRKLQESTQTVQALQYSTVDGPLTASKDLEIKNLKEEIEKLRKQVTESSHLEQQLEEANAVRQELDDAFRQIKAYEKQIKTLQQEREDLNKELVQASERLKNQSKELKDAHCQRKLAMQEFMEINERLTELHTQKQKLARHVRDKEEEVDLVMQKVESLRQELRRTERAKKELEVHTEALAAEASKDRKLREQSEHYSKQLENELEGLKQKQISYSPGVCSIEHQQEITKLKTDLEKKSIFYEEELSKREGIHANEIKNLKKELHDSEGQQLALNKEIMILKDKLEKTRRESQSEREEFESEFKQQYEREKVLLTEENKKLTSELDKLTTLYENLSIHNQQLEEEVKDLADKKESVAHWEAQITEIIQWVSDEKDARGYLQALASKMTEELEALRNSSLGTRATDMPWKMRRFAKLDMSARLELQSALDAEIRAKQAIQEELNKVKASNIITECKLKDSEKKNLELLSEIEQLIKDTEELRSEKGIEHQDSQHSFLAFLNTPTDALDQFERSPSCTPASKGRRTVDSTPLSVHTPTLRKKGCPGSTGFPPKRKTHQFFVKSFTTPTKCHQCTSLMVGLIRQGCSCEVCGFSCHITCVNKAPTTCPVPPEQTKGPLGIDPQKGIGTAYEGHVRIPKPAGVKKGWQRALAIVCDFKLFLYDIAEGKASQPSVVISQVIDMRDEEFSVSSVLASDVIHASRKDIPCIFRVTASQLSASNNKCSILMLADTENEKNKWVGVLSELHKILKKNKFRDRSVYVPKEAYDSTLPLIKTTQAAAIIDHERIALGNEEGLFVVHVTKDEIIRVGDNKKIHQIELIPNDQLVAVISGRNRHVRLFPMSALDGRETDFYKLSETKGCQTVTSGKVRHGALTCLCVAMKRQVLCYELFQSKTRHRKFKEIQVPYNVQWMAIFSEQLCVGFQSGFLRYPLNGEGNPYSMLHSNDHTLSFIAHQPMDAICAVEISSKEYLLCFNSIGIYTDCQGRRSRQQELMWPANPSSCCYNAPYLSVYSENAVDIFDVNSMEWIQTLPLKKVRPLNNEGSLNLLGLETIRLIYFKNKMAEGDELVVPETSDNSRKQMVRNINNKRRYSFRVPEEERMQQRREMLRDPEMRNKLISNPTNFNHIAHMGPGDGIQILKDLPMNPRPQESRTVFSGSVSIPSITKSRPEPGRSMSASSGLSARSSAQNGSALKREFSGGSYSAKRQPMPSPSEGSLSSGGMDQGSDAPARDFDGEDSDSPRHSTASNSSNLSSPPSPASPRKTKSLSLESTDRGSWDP

[8] = target: kinases (KINOMEscan panel) (Homo sapiens, UniProt P78362); details: SRPK2; Published KINOMEscan; ref original PKIS2 published data; cited from earlier work
Sequence of kinases (KINOMEscan panel) (Homo sapiens, UniProt P78362) (P78362 whole entry): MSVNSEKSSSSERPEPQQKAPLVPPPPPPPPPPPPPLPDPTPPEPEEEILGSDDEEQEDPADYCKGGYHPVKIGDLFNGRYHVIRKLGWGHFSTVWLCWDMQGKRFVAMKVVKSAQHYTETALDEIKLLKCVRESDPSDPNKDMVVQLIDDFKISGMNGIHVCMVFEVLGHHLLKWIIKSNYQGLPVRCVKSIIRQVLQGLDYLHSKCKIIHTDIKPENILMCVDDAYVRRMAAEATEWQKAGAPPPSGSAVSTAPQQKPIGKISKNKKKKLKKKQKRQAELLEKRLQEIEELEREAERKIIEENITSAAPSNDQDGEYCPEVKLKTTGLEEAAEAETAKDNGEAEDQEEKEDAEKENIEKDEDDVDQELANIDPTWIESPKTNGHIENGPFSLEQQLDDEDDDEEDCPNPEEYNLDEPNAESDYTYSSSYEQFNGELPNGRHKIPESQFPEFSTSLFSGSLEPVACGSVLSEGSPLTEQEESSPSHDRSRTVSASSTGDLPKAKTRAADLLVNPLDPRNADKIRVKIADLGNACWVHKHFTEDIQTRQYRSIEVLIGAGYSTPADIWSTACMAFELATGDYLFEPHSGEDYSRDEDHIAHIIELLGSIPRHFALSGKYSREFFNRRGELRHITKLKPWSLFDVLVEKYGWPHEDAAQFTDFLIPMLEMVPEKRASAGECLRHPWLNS

Sequence of kinases (KINOMEscan panel) (Homo sapiens, UniProt Q00536) (Q00536 whole entry): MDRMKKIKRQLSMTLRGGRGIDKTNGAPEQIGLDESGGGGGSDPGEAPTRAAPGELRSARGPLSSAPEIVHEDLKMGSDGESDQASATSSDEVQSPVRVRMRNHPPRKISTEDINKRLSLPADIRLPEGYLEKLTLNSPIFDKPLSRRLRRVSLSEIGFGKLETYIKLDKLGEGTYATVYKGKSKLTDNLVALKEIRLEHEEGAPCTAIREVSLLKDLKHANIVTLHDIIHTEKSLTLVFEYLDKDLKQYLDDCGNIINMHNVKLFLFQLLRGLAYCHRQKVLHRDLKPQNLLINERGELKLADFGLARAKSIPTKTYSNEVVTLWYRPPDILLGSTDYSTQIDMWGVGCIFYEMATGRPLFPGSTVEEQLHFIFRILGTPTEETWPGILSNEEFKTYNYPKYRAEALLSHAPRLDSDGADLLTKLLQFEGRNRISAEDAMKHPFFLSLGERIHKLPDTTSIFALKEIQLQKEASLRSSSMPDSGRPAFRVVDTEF

For `Cc1cccc(-c2nc(Nc3ccncc3)c3ccccc3n2)n1` [NK215], the “KINOMEscan CDK16” value [1] is listed as 0, the “KINOMEscan SGK3” value [2] is listed as 0 and the “KINOMEscan LATS1” value [3] is listed as 3. The “KINOMEscan CAMKK2” value [4] was 7, the “KINOMEscan TNK1” value [5] was 39 and the “KINOMEscan SIK2” value [6] was 0. For the same compound, the “KINOMEscan CDC42BPA/MRCKA” value [7] was 47 and the “KINOMEscan SRPK2” value [8] was 54.
